In patent US8361999B2, “Methods of treating cholesterol gallstone disease with ezetimibe” (Pontificia Universidad Catolica de Chile, priority 2005, dated 2013):
“Also recorded” adds a separate entry of the source.

Columns and labels:
[1] = test system: C57BL/6J mice; assay: Glutathione biliary secretion; assay type: in vivo, mouse; settings: lithogenic diet (FIG. 4)
Experimental: Surgery and sample harvest. The groups were maintained for 14 days (protocol #1) or 30 days (protocol #2) in the different experimental conditions. During the last three days of the protocols, 24 h depositions were collected from the different groups (pool) to determine the fecal excretion of neutral sterols (cholesterol) and acidic sterols (bile salts). At the end of the time established in the protocols, the mice were anesthetized (between 08:00-10:00 AM) with an intraperitoneal pentobarbital injection in doses of 4.5 mg per 100 gr body weight (Amigo et al., 2000) and subjected to surgery. Standardized surgery consists in an extended […] and visualization of abdominal organs, including liver, biliary tree and gallbladder. […] Afterwards, the common biliary duct is cannulated (biliary fistula) with a P-10 polyethylene cannula to collect bile during 15 minutes, determine bile flow by gravimetry (1 g bile=1 ml; bile flow is expressed as μl/min/g of mouse liver) and for posterior chemical analysis of biliary lipids and glutathione, as specified later. […]
Biliary gluthation. Biliary gluthation was quantified from the bile obtained by cannulation of the biliary duct for a 5 minute period with tubes containing 5 μl sulfosalicylic acid. […] The reaction mix was incubated at 37° C., measured at 412 nm, and an enzymatic kinetic curve was obtained using different […] concentrations as standard. […]

[2] = test system: SR-BI; assay: Hepatic expression of SR-BI; assay type: in vivo, mouse; settings: 14 days
[3] = test system: C57BL/6J mice; assay: Lithiasis of the gallbladder and cholesterol crystals, protocol #2 (Ezetimibe in lithogenic diet, 30 days); assay type: in vivo, mouse
Experimental: We used mice C57BL/6J susceptible to the development of cholelithiasis originally obtained from Jackson Corp (Bar Harbor, Me., USA) and the colonies were grown in our Laboratory of Gastroenterology, Facultad de Medicina, P. Universidad Católica de Chile. The experimental groups were fed a control chow diet low in cholesterol (<0.02% cholesterol, Prolab RMH3000, PMI Feeds Inc., St. Louis, Mo.) or a lithogenic diet (1.25% cholesterol, 0.5% cholic acid, 15% fat, TD90221, Harlan Teklad, Madison, Wis.) (Amigo et al. 2000). These mice were also treated with Ezetimibe (Zetia®, Merk/Schering Plough) or placebo. In protocol #1 Zetia® tablets were grinded in a porcelain mortar and dissolved in water to be administered to the mice in one daily dose (08 h) of 5 mg/Kg weight by gavage in a final volume of […]; the control groups were given the same volume of water by gavage without the drug. […]
Surgery and sample harvest. […] Afterwards, the common biliary duct is cannulated (biliary fistula) with a P-10 polyethylene cannula to collect bile during 15 minutes, determine bile flow by gravimetry (1 g bile=1 ml; bile flow is expressed as μl/min/g of mouse liver) and for posterior chemical analysis of biliary lipids and glutathione, as specified later. […]

[4] = test system: cholesterol absorption; settings: relative to SCH 48461; cited from earlier work

## O=C1[C@H](CC[C@H](O)c2ccc(F)cc2)[C@@H](c2ccc(O)cc2)N1c1ccc(F)cc1 [Ezetimibe, (−)-1-(4-fluorophenyl)-(3R)-[3-(4-fluorophenyl)-(.S)-hydroxypropyl]-(4S)-(4-hydroxyphenyl)-2-azetidinone]
[1]
  increase in glutathione secretion vs lithogenic diet only (significant): 200%
[2]
  hepatic expression of SR-BI, lithogenic diet plus Ezetimibe vs lithogenic diet: no significant differences
[3]; lithogenic diet plus Ezetimibe 5-6 mg/kg/day in the diet, 30 days, 100% on lithogenic diet alone
  mice that developed gallstones or cholesterol crystals in the gallbladder: 0%
[3]; lithogenic diet plus Ezetimibe in the diet, 30 days (FIG. 5)
  formation of cholesterol gallstones: inhibits; also recorded: completely inhibited
[4]
  inhibitory activity in cholesterol absorption higher than predecessor analog (SCH 48461): 400 times
